“And” between values parts separate entries of the source, which are not always exact repeats. Equal entries are not always repeated.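 Assay format: 96-well plates, 48-hour exposure. The concentration for 50% growth inhibition is given as GI50. TGI: total growth inhibition.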
Key:
Assay in all cases: NCI anticancer screen, dose series, 48 h
MDA-MB-468 breast = tested on: MDA-MB-468 breast
OVCAR-5 ovarian = tested on: OVCAR-5 ovarian
SN12C renal = tested on: SN12C renal
SF-539 CNS = tested on: SF-539 CNS
UACC-62 melanoma = tested on: UACC-62 melanoma
HS 578T breast = tested on: HS 578T breast
SF-295 CNS = tested on: SF-295 CNS
HCC-2998 colon = tested on: HCC-2998 colon
CCRF-CEM leukemia = tested on: CCRF-CEM leukemia
RXF 393 renal = tested on: RXF 393 renal
NCI-H23 lung = tested on: NCI-H23 lung

Row | Compound | GI50 (MDA-MB-468 breast) | TGI (MDA-MB-468 breast) | other results
1 | CCN(Cc1c(F)cccc1OC)c1ccc(CO)c(Cl)c1 | 28.5 nM | 144 nM | –
2 | CN(C)CCN1CCC(Cc2ccccc2)CC1 | > 80000 nM | > 80000 nM | –
3 | CCn1cc(-c2ccnc3[nH]c(-c4cccc(CN(C)C)c4)cc23)c(-c2ccc(NC(=O)N(C)C)cc2)n1 | 50.4 nM and 282 nM | 16700 nM and > 10000 nM | –
4 | O=C(Nc1nc(-c2c[nH]c3ccccc23)cs1)c1n[nH]c(=O)c2ccccc12 | 77900 nM | > 100000 nM | –
5 | Brc1ccc(/C=C/c2n(Cc3ccc4ccccc4c3)c3ccccc3[n+]2Cc2ccc3ccccc3c2)cc1 | 1340 nM | 2730 nM | GI50 (OVCAR-5 ovarian): 1350 nM; TGI (OVCAR-5 ovarian): 2660 nM; GI50 (SN12C renal): 1640 nM; TGI (SN12C renal): 3030 nM; GI50 (SF-539 CNS): 1670 nM; TGI (SF-539 CNS): 3040 nM; GI50 (UACC-62 melanoma): 1530 nM; TGI (UACC-62 melanoma): 2900 nM; GI50 (HS 578T breast): 1480 nM; TGI (HS 578T breast): 3870 nM; GI50 (SF-295 CNS): 1400 nM; TGI (SF-295 CNS): 2730 nM; GI50 (HCC-2998 colon): 1490 nM; TGI (HCC-2998 colon): 2830 nM; GI50 (CCRF-CEM leukemia): 519 nM; TGI (CCRF-CEM leukemia): > 100000 nM; GI50 (RXF 393 renal): 1350 nM; TGI (RXF 393 renal): 2640 nM; GI50 (NCI-H23 lung): 1330 nM; TGI (NCI-H23 lung): 2680 nM
6 | CNCCCNc1ccnc2cc(Cl)ccc12 | 12700 nM | 33500 nM | –
7 | Cc1cccc(NC2=C(Cl)C(=O)c3nc(C)ccc3C2=O)c1 | 1270 nM | 2890 nM | –
8 | NNc1ncnc2nc[nH]c12 | 5790 nM | > 100000 nM | –
9 | C=CC12CCN(CC1)C(C(O)c1ccnc3ccc(OC)cc13)C2 (stereo not given) | 57400 nM | > 100000 nM | –
10 | C=C(C)[C@@H]1CC[C@]2(CN)CC[C@]3(C)[C@H](CC[C@@H]4[C@@]5(C)CCCNC(C)(C)[C@@H]5CC[C@]43C)[C@@H]12 | 1750 nM | 3520 nM | –

From PubChem BioAssay (NCI)
